One block for each molecule: values may come before it.
Key:
[1] = Drug dissolution test of extruded granules or pellets, paddles at 100 rpm, demineralized water, room temperature; type: physicochemical; details: paddles 100 rpm
Description: The extruded granules were collected, sieved and further analysed for drug dissolution (data shown in FIGS. 1 and 2, formulations B and D). The dissolution test was performed at room temperature by using paddles rotating at 100 rpm, the dissolution medium being demineralized water.

[2] = capsules with granulate formulation, surfactants, cyclodextrin, Avicel PH 101 and Primojel (U.S. Pat. No. 5,646,131, example 4); cited from earlier work
[3] = cited from earlier work
[4] = in vivo; cited from earlier work

drug release after 30 minutes [1]: 38%
SMILES: COc1cc(Cc2cnc(N)nc2N)cc(OC)c1OC [trimethoprim, 2,4-diamino-5-(3,4,5-trimethoxy-benzyl)pyrimidine]

SMILES: CC(C)(C)c1ccc(C(O)CCCN2CCC(C(O)(c3ccccc3)c3ccccc3)CC2)cc1 (stereo not drawn) [terfenadine]
drug release within 45 minutes [2]: 90%
water-solubility [3]: less than 0.01 mg/ml

SMILES: Cn1c(=O)c2[nH]cnc2n(C)c1=O [theophylline]
water-solubility [3]: 8000 µg/mL

SMILES: CS(=O)(=O)c1ccc([C@@H](O)[C@@H](CF)NC(=O)C(Cl)Cl)cc1 [florfenicol, D-(threo)-1-p-methylsulfonyl phenyl-2-dichloroacetamido-3-fluoro-l-propanol]
oral bioavailability [4]: good oral bioavailability

SMILES: CC/C(=C(/CC)c1ccc(O)cc1)c1ccc(O)cc1 [diethylstilbestrol]
solubility in water (in words) [3]: virtually insoluble in water
